Source: patent US20180162862A1 (President and Fellows of Harvard College, priority 2015, published 2018)
Values after ≈ are worked out from the molar mass of the structure shown. Read-outs that look alike come from different tables or passages of the source.

Columns and labels:
S. aureus ATCC 29213 = test: MIC test according to CLSI M7-A9, S. aureus ATCC 29213; assay type: cell-based; conditions: Staphylococcus aureus, ATCC29213, CLSI M7-A9, CAMHB
Outline: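 Per CLSI M7-A9, DMSO stocks diluted in cation-adjusted Mueller Hinton broth, plates incubated 24 h at 37 °C in air. MIC is the lowest concentration giving complete inhibition of visible growth, read visually and at 600 nm.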

S. aureus Newman = test: MIC test according to CLSI M7-A9, S. aureus Newman; assay type: cell-based; conditions: Staphylococcus aureus, CLSI M7-A9, CAMHB, 24 h (Table 3), read-out: S. aureus ATCC Newman MIC
Experimental: (§1) MIC Test (S. aureus ATCC 29213, S. aureus ATCC 43300 and S. aureus Newman)
(§2) Susceptibility testing of S. aureus ATCC 29213, ATCC 43300 and Newman was performed according to Clinical Laboratory Standard Institute (CLSI) guidelines M7-A9. Test articles were stored at room temperature prior to use, then dissolved in filtered sterile DMSO. Stock DMSO solutions were diluted further in cation-adjusted Mueller Hinton broth (CAMHB) to provide appropriate test concentrations. Cultures of S. aureus (ATCC 29213, ATCC 43300 or Newman) were added in accordance with CLSI guidelines and plates incubated at 37° C. in air for 24 h. Endpoints were determined visually (and by spectrophotometer at 600 nm) and the minimum inhibitory concentration (MIC) defined as the lowest concentration of test articles resulting in complete inhibition of visible bacterial growth. Results are detailed in Table 2 (S. aureus ATCC 29213 and ATCC 43300) and Table 3 (S. aureus ATCC 29213, ATCC 43300 and Newman).

S. aureus ATCC 43300 = test: MIC test according to CLSI M7-A9, S. aureus ATCC 43300; assay type: cell-based; conditions: Staphylococcus aureus, ATCC43300, CLSI M7-A9, CAMHB
Experimental: as §1, §2

MSSA Newman = test: MIC test in TSB medium with MTT staining, MSSA Newman; assay type: cell-based, Staphylococcus aureus; conditions: Staphylococcus aureus, TSB, 37° C.
Experimental: MIC Test (Methicillin Susceptible Staphylococcus aureus (MSSA Newman))
Overnight cultures of MSSA Newman were grown up in TSB medium at 37° C. The cultures obtained were normalized with TSB to OD600=0.6 and diluted 100-fold. 1.5 μL of a dilution series of Example Compounds in DMSO (100×, in duplicate), and the diluted bacterial culture (150 μL) was added to wells of a sterile, clear 96 well plate and incubated at 37° C.

[1] = 24 h (Table 3), read-out: S. aureus ATCC 29213 MIC
[2] = 24 h (Table 3), read-out: S. aureus ATCC 43300 MIC
[3] = MTT staining after 7 h, read-out: MSSA Newman MIC at 7 h
[4] = MTT staining after 24 h, read-out: MSSA Newman MIC at 24 h

Row | SMILES | MIC (S. aureus ATCC 29213; [1]) [µg/mL] | MIC (S. aureus Newman) [µg/mL] | MIC (S. aureus ATCC 43300; [2]) [µg/mL] | MIC (MSSA Newman; [3]) [µg/mL] | MIC (MSSA Newman; [4]) [µg/mL] | MIC (S. aureus ATCC 29213; 24 h (Table 2), read-out: S. aureus ATCC 29213 MIC at 24 h) [µg/mL] | MIC (S. aureus ATCC 43300; 24 h (Table 2), read-out: S. aureus ATCC 43300 MIC at 24 h) [µg/mL]
1 | O=c1cc2nc(C34CC5CC(CC(C5)C3)C4)nc(NCCCO)n2[nH]1 [Example 100, 2-(adamantan-1-yl)-4-[(3-hydroxypropyl)amino]-6H,7H-pyrazolo[1,5-a][1,3,5]triazin-7-one] | 32 (≈ 93.2 µM) | 16 (≈ 46.6 µM) | 32 (≈ 93.2 µM) |  |  |  | 
2 | CC(C)(C)c1ccc(-c2nc(O)n3[nH]c(=O)cc3n2)cc1 [Example 38, 2-(4-tert-butylphenyl)-4-hydroxy-6H,7H-pyrazolo[1,5-a][1,3,5]triazin-7-one] |  |  |  | 12.5 (≈ 44 µM) | 12.5 (≈ 44 µM) |  | 
3 | Cc1oc(C(C)(C)C)cc1-c1nc2cc(=O)[nH]n2c(=S)[nH]1 [Example 92, 2-(5-tert-butyl-2-methylfuran-3-yl)-4-sulfanylidene-3H,4H,6H,7H-pyrazolo[1,5-a][1,3,5]triazin-7-one] | 32 (≈ 105 µM) | 8 (≈ 26.3 µM) | 16 (≈ 52.6 µM) |  |  |  | 
4 | Cc1oc(C(C)(C)C)cc1-c1nc(NCCCO)n2[nH]c(=O)cc2n1 [Example 93, 2-(5-tert-butyl-2-methylfuran-3-yl)-4-[(3-hydroxypropyl)amino]-6H,7H-pyrazolo[1,5-a][1,3,5]triazin-7-one] | 32 (≈ 92.6 µM) | 16 (≈ 46.3 µM) | 32 (≈ 92.6 µM) |  |  |  | 
5 | O=c1cc2nc(C34CC5CC(CC(C5)C3)C4)[nH]c(=S)n2[nH]1 [Example 99, 2-(adamantan-1-yl)-4-sulfanylidene-3H,4H,6H,7H-pyrazolo[1,5-a][1,3,5]triazin-7-one] | 64 (≈ 212 µM) | 32 (≈ 106 µM) | 64 (≈ 212 µM) |  |  |  | 
6 | CC(C)(C)c1ccc(-c2nc(NCCN3CCOCC3)n3[nH]c(=O)cc3n2)cc1 [Example 81, 2-(4-tert-butylphenyl)-4-{[2-(morpholin-4-yl)ethyl]amino}-6H,7H-pyrazolo[1,5-a][1,3,5]triazin-7-one] | 128 (≈ 323 µM) | 128 (≈ 323 µM) | 128 (≈ 323 µM) |  |  |  | 
7 | CCCCCCCCCCCCCCCCNc1nc(-c2ccc(C(C)(C)C)cc2)nc2cc(=O)[nH]n12 [Example 73, 2-(4-tert-butylphenyl)-4-(hexadecylamino)-6H,7H-pyrazolo[1,5-a][1,3,5]triazin-7-one] | > 32 | > 32 | > 32 |  |  |  | 
8 | CC(C)(C)c1ccc(-c2nc(NCCN3CCCCC3)n3[nH]c(=O)cc3n2)cc1 [Example 82, 2-(4-tert-butylphenyl)-4-{[2-(piperidin-1-yl)ethyl]amino}-6H,7H-pyrazolo[1,5-a][1,3,5]triazin-7-one] | 64 (≈ 162 µM) | 32 (≈ 81.1 µM) | 64 (≈ 162 µM) |  |  |  | 
9 | Cc1oc(C(C)(C)C)cc1-c1nc(NCCCNC2Cc3ccccc3C2)n2[nH]c(=O)cc2n1 [Example 94] | 16 (≈ 34.7 µM) | 16 (≈ 34.7 µM) | 16 (≈ 34.7 µM) |  |  |  | 
10 | CN(CCNc1nc(-c2ccc(C(C)(C)C)cc2)nc2cc(=O)[nH]n12)C1CCCCC1 [Example 83, 2-(4-tert-butylphenyl)-4-({2-[cyclohexyl(methyl)amino]ethyl}amino)-6H,7H-pyrazolo[1,5-a][1,3,5]triazin-7-one] | 32 (≈ 75.7 µM) | 32 (≈ 75.7 µM) | 32 (≈ 75.7 µM) |  |  |  | 
11 | CNc1nc(-c2ccc(C(C)(C)C)cc2)nc2cc(=O)[nH]n12 [Example 17, 2-(4-tert-butylphenyl)-4-(methylamino)-6H,7H-pyrazolo[1,5-a][1,3,5]triazin-7-one] |  |  |  | 50 (≈ 168 µM) |  |  | 
12 | CC(C)(C)c1ccc(-c2nc3c(Cc4ccccc4)c(=O)[nH]n3c(=S)[nH]2)cc1 [Example 106, 8-benzyl-2-(4-tert-butylphenyl)-4-sulfanylidene-3H,4H,6H,7H-pyrazolo[1,5-a][1,3,5]triazin-7-one] | 2 (≈ 5.12 µM) | 1 (≈ 2.56 µM) | 2 (≈ 5.12 µM) |  |  |  | 
13 | CC(C)(C)c1ccc(-c2nc(NCC(F)CNC3CCCCC3)n3[nH]c(=O)cc3n2)cc1 (centres unmarked) [Example 87, 2-(4-tert-butylphenyl)-4-{[3-(cyclohexylamino)-2-fluoropropyl]amino}-6H,7H-pyrazolo[1,5-a][1,3,5]triazin-7-one] | 32 (≈ 72.6 µM) | 32 (≈ 72.6 µM) | 32 (≈ 72.6 µM) |  |  |  | 
14 | O=c1cc2nc(C34CC5CC(CC(C5)C3)C4)nc(NCCCNC3Cc4ccccc4C3)n2[nH]1 [Example 101, 2-(adamantan-1-yl)-4-({3-[(2,3-dihydro-1H-inden-2-yl)amino]propyl}amino)-6H,7H-pyrazolo[1,5-a][1,3,5]triazin-7-one] | 8 (≈ 17.4 µM) | 8 (≈ 17.4 µM) | 8 (≈ 17.4 µM) |  |  |  | 
15 | CC(C)(C)c1ccc(-c2nc(N)n3[nH]c(=O)cc3n2)cc1 [Example 37, 4-amino-2-(4-tert-butylphenyl)-6H,7H-pyrazolo[1,5-a][1,3,5]triazin-7-one] |  |  |  | 25 (≈ 88.2 µM) |  |  | 

Continued, values first:

Row | MIC (S. aureus ATCC 29213; [1]) [µg/mL] | MIC (S. aureus Newman) [µg/mL] | MIC (S. aureus ATCC 43300; [2]) [µg/mL] | MIC (MSSA Newman; [3]) [µg/mL] | MIC (MSSA Newman; [4]) [µg/mL] | MIC (S. aureus ATCC 29213; 24 h (Table 2), read-out: S. aureus ATCC 29213 MIC at 24 h) [µg/mL] | MIC (S. aureus ATCC 43300; 24 h (Table 2), read-out: S. aureus ATCC 43300 MIC at 24 h) [µg/mL] | SMILES
16 | 16 (≈ 37.2 µM) | 16 (≈ 37.2 µM) | 16 (≈ 37.2 µM) |  |  |  |  | CC(C)(C)c1ccc(-c2nc(NCCCNCc3ccccc3)n3[nH]c(=O)cc3n2)cc1 [Example 74, 4-{[3-(benzylamino)propyl]amino}-2-(4-tert-butylphenyl)-6H,7H-pyrazolo[1,5-a][1,3,5]triazin-7-one]
17 |  |  |  | 12.5 (≈ 27.5 µM) | 25 (≈ 55.1 µM) | > 64 | > 64 | CC(C)(C)c1ccc(-c2nc(NCCCOc3cnc(Cl)nc3)n3[nH]c(=O)cc3n2)cc1 [Example 52, 2-(4-tert-butylphenyl)-4-({3-[(2-chloropyrimidin-5-yl)oxy]propyl}amino)-6H,7H-pyrazolo[1,5-a][1,3,5]triazin-7-one]
18 | 32 (≈ 86.8 µM) | 32 (≈ 86.8 µM) | 32 (≈ 86.8 µM) |  |  |  |  | CN(C)CCCNc1nc(-c2ccc(C(C)(C)C)cc2)nc2cc(=O)[nH]n12 [Example 75, 2-(4-tert-butylphenyl)-4-{[3-(dimethylamino)propyl]amino}-6H,7H-pyrazolo[1,5-a][1,3,5]triazin-7-one]
19 | 32 (≈ 86.6 µM) | 32 (≈ 86.6 µM) | 64 (≈ 173 µM) |  |  |  |  | CC(C)(O)CCNc1nc(-c2ccc(C(C)(C)C)cc2)nc2cc(=O)[nH]n12 [Example 80, 2-(4-tert-butylphenyl)-4-[(3-hydroxy-3-methylbutyl)amino]-6H,7H-pyrazolo[1,5-a][1,3,5]triazin-7-one]
20 | 32 (≈ 69.8 µM) | 32 (≈ 69.8 µM) | 16 (≈ 34.9 µM) |  |  |  |  | CC(C)(O)c1ccc(-c2nc(NCCCNC3Cc4ccccc4C3)n3[nH]c(=O)cc3n2)cc1 [Example 105, 4-({3-[(2,3-dihydro-1H-inden-2-yl)amino]propyl}amino)-2-[4-(2-hydroxypropan-2-yl)phenyl]-6H,7H-pyrazolo[1,5-a][1,3,5]triazin-7-one]
21 |  |  |  | 12.5 (≈ 27.7 µM) | 12.5 (≈ 27.7 µM) |  |  | Cc1cc(OCCNc2nc(-c3ccc(C(C)(C)C)cc3)nc3cc(=O)[nH]n23)ccc1Cl [Example 46, 2-(4-tert-butylphenyl)-4-{[2-(4-chloro-3-methylphenoxy)ethyl]amino}-6H,7H-pyrazolo[1,5-a][1,3,5]triazin-7-one]
22 |  |  |  | > 100 | > 100 |  |  | CCCCNc1nc(-c2ccc(C)cc2)nc2cc(=O)[nH]n12 [Example 70, 4-(butylamino)-2-(4-methylphenyl)-6H,7H-pyrazolo[1,5-a][1,3,5]triazin-7-one]
23 | 32 (≈ 70.8 µM) | 32 (≈ 70.8 µM) | 32 (≈ 70.8 µM) |  |  |  |  | CC(=O)c1ccc(-c2nc(NCCCOc3ccc(Cl)c(C)c3)n3[nH]c(=O)cc3n2)cc1 [Example 104, 2-(4-acetylphenyl)-4-{[3-(4-chloro-3-methylphenoxy)propyl]amino}-6H,7H-pyrazolo[1,5-a][1,3,5]triazin-7-one]
24 | 32 (≈ 62.7 µM) | 4 (≈ 7.84 µM) | 32 (≈ 62.7 µM) |  |  |  |  | Cc1cc(OCCCN(CCO)c2nc(-c3ccc(C(C)(C)C)cc3)nc3cc(=O)[nH]n23)ccc1Cl [Example 85]
25 | 16 (≈ 36.2 µM) | 32 (≈ 72.3 µM) | 8 (≈ 18.1 µM) |  |  |  |  | CC(=O)c1ccc(-c2nc(NCCCNC3Cc4ccccc4C3)n3[nH]c(=O)cc3n2)cc1 [Example 103, 2-(4-acetylphenyl)-4-({3-[(2,3-dihydro-1H-inden-2-yl)amino]propyl}amino)-6H,7H-pyrazolo[1,5-a][1,3,5]triazin-7-one]
26 |  |  |  | 6.2 (≈ 18.3 µM) | 12.5 (≈ 36.8 µM) |  |  | CCCCNc1nc(-c2ccc(C(C)(C)C)cc2)nc2cc(=O)[nH]n12 [Example 16, 4-(butylamino)-2-(4-tert-butylphenyl)-6H,7H-pyrazolo[1,5-a][1,3,5]triazin-7-one]
27 | > 128 | 64 (≈ 148 µM) | > 128 |  |  |  |  | CC(C)(C)c1ccc(-c2nc(NCCCO)n3[nH]c(=O)c(Cc4ccccc4)c3n2)cc1 [Example 107, 8-benzyl-2-(4-tert-butylphenyl)-4-[(3-hydroxypropyl)amino]-6H,7H-pyrazolo[1,5-a][1,3,5]triazin-7-one]
